# Measured values reported in US9662318B2, “Bitopic muscarinic agonists and antagonists and methods of synthesis and use thereof” (BARRY UNIVERSITY, INC., priority 2012, dated 2017).
# Like-named read-outs stand apart in the source and are kept apart here.
# Columns and labels:
# M4 muscarinic receptor [1] = target: T1, M4 muscarinic receptor (Homo sapiens, UniProt P08173); experiment: Dissociation of [3H]NMS (full time course kinetics); type: binding; details: [^3H]NMS dissociation
# T1 construct: host or cells: Chinese hamster ovary cells
# T1 sequence (P08173 1-479): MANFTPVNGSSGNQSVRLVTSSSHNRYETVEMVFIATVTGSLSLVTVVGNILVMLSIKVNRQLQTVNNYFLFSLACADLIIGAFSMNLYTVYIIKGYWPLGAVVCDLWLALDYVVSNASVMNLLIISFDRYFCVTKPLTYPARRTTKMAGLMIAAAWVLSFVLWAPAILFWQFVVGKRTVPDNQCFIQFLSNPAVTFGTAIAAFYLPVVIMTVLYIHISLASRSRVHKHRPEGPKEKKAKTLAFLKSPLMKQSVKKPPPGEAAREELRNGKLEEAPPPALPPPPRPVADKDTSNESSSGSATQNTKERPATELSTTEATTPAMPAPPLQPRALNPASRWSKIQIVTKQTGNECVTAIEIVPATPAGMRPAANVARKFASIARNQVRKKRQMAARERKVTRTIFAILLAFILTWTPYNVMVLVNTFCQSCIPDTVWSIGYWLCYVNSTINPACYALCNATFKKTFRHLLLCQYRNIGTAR
# Excerpt: (§1) To probe the ability of JB-D4 to allosterically modulate orthosteric ligand, its effect on the rate of orthosteric radioligand dissociation has been investigated. […] Eq. 1 was fitted to the data from kinetic experiments. Data are means±SD from 3 independent experiments performed in quadruplicates. Equations: y=(100-f2)*e^(-Koff1*X)+f2*e^(-Koff2*X) (Eq. 1) where y is the percentage of radioligand binding at time x of radioligand binding at time 0, koff1 and koff2 are rate dissociation constants and f2 is the percentage of sites with koff2 rate of dissociation. […]. 2)
# M5 muscarinic receptor [2] = target: T2, M5 muscarinic receptor (Homo sapiens, UniProt P08912); experiment: as above; type: binding; details: [^3H]NMS dissociation, +0.1 mM JB-D4, M5
# T2 construct: host or cells: CHO (Chinese hamster ovary) cells, stably transfected
# T2 sequence (P08912 1-532): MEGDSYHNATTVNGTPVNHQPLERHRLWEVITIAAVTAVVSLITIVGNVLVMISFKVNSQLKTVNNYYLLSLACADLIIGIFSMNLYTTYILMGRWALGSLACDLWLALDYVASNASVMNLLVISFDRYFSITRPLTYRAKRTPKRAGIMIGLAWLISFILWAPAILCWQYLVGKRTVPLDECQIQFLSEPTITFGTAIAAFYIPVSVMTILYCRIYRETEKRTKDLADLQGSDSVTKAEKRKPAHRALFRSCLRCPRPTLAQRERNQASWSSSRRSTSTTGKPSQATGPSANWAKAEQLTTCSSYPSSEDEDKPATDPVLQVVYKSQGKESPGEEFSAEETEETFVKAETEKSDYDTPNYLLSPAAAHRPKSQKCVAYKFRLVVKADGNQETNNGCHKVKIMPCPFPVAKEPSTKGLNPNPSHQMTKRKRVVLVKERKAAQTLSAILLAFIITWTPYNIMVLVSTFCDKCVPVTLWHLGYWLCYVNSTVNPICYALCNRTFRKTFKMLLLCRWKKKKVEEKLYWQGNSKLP
# Excerpt: as §1
# M3 muscarinic receptor [3] = target: T3, M3 muscarinic receptor (Homo sapiens, UniProt P20309); experiment: as above; type: binding; details: [^3H]NMS dissociation
# T3 construct: host or cells: Chinese hamster ovary cells
# T3 sequence (P20309 whole entry): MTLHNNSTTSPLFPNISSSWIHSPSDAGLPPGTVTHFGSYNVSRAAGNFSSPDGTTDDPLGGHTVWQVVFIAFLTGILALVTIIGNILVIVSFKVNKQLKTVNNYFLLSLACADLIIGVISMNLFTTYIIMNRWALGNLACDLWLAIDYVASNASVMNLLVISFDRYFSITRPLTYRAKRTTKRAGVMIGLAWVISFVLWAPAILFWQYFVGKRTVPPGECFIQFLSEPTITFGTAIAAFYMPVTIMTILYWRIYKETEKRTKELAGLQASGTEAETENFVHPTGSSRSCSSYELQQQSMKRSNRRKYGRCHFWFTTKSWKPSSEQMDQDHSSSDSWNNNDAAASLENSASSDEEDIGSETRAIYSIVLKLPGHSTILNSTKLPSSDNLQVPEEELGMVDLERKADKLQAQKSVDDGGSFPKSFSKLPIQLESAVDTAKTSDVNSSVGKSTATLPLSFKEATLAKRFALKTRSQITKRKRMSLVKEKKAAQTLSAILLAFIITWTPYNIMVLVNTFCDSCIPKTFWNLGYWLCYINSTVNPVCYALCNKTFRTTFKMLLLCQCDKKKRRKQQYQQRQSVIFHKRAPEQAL
# Excerpt: as §1
# M1 muscarinic receptor [4] = target: T4, M1 muscarinic receptor (Homo sapiens, UniProt P11229); experiment: as above; type: binding; details: [^3H]NMS dissociation
# T4 sequence (P11229 1-460): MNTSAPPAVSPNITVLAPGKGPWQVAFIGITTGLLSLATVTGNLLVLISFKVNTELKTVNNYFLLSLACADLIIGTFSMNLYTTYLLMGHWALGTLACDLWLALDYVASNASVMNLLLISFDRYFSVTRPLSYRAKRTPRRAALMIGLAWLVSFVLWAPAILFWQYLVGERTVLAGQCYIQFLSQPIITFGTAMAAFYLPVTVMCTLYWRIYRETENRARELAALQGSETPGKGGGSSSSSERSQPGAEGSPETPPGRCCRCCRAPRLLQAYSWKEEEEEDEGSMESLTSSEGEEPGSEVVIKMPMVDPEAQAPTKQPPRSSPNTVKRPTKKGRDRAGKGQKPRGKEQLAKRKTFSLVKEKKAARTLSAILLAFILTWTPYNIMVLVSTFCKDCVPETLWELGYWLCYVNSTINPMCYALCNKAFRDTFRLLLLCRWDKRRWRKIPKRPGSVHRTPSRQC
# Excerpt: as §1
# M5 muscarinic receptor [5] = target: T2, M5 muscarinic receptor; experiment: Accumulation of inositol phosphates in CHO cells; type: cell-based; details: M5; ligand 0.1 mM; no carbachol
# Description: Chinese hamster ovary cells stably transfected with the genes of human variants of muscarinic receptors were purchased from Missouri S&T cDNA Resource Center (Rolla, Mo., USA). […] Cells were grown to confluency in 75 cm^2 flasks in Dulbecco's modified Eagle's medium supplemented with 10% fetal bovine serum and 2 million of cells were subcultured to 100 mm Petri dishes. Medium was supplemented with 5 mM butyrate for the last 24 hours of cultivation to increase receptor expression.
# Inositolphosphates formation was determined in cells pre-labeled overnight by 0.5 μM [^3H]myo-inositol in 0.3 mL of DMEM (3 μCi/ml) at 37° C. […] Incubation was stopped by removal of incubation buffer and addition 0.2 mL 20% trichloracetic acid (TCA). After 1 h incubation at 4° C., 100 μL, of TCA extracts were taken for measurement. Rest of the TCA was removed, and TCA precipitates were washed with 200 μL TCA and dissolved in 200 μL of 1 M NaOH. After 1 h incubation at 4° C., 100 μL, of NaOH lysates were taken for measurement. Radioactivity in TCA extracts and NaOH lysates were determined by liquid scintillation counting. The rate of inositolphosphates accumulation was calculated as a percentage of the soluble (released) inositolphosphates from the total incorporated radioactivity (sum of radioactivity in NaOH lysates and TCA extracts).
# EC50 values are expressed as negative logarithms and EMAX values as folds over basal, Table 7.
# M4 muscarinic receptor [6] = target: T1, M4 muscarinic receptor; experiment: Dissociation of [3H]acetylcholine (full time course kinetics); type: binding; details: [3H]acetylcholine dissociation
# Excerpt: (§2) To probe the ability of JB-D4 to allosterically modulate orthosteric ligand, its effect on the rate of orthosteric radioligand dissociation has been investigated. […] where y is the percentage of radioligand binding at time x of radioligand binding at time 0, koff1 and koff2 are rate dissociation constants and f2 is the percentage of sites with koff2 rate of dissociation. […] y is the percentage of radioligand binding at time x of radioligand binding at time 0, koff is rate dissociation constant and f is percentage of sites with koff rate of dissociation. Eq. 2 was fitted to the data from kinetic experiments. Data are means±SD from 3 independent experiments performed in quadruplicates.
# M5 muscarinic receptor [7] = target: T2, M5 muscarinic receptor; experiment: as above; type: binding; details: [3H]acetylcholine dissociation
# Excerpt: as §2
# M3 muscarinic receptor [8] = target: T3, M3 muscarinic receptor; experiment: as above; type: binding; details: [3H]acetylcholine dissociation
# Excerpt: as §2
# M1 muscarinic receptor [9] = target: T4, M1 muscarinic receptor; experiment: as above; type: binding; details: [3H]acetylcholine dissociation
# Excerpt: as §2
# [10] = tested on: M1-M5 muscarinic receptors; type: binding, human; details: competition experiments, all M1-M5
structure (smiles),measurement,setting,value
"CCCCOc1ccc(C(=O)OCC[N+]2(C)CCCCC2)cc1.[I-] [JB-D4, 2-(N-piperidineethyl) p-butoxybenzoate N-methyl iodide]",koff1,"M4 muscarinic receptor [1]; +0.1 mM JB-D4, M4",0.38 ± 0.03 h⁻¹
same,koff1,"M4 muscarinic receptor [1]; +1 mM JB-D4, M4",0.076 ± 0.006 h⁻¹
same,koff1,M5 muscarinic receptor [2],0.18 ± 0.01 h⁻¹
same,koff1,"M3 muscarinic receptor [3]; +0.1 mM JB-D4, M3",0.41 ± 0.03 h⁻¹
same,koff1,"M3 muscarinic receptor [3]; +1 mM JB-D4, M3",0.085 ± 0.008 h⁻¹
same,koff1,"M1 muscarinic receptor [4]; +0.1 mM JB-D4, M1",0.91 ± 0.05 h⁻¹
same,koff2,"M1 muscarinic receptor [4]; +0.1 mM JB-D4, M1",1.15 ± 0.06 h⁻¹
same,f2,"M1 muscarinic receptor [4]; +0.1 mM JB-D4, M1, percentage of sites with koff2",12 ± 1%
same,koff1,"M1 muscarinic receptor [4]; +1 mM JB-D4, M1",0.61 ± 0.06 h⁻¹
same,Effect of ligands on basal activity (accumulation of inositol phosphates as percent of accumulation in the absence of the ligand),M5 muscarinic receptor [5],98 ± 3%
same,f,"M4 muscarinic receptor [6]; +0.1 mM JB-D4, M4",81 ± 4%
same,koff,"M4 muscarinic receptor [6]; +0.1 mM JB-D4, M4",0.003 s⁻¹
same,f,"M4 muscarinic receptor [6]; +1 mM JB-D4, M4",86 ± 3%
same,koff,"M4 muscarinic receptor [6]; +1 mM JB-D4, M4",0.000817 s⁻¹
same,f,"M5 muscarinic receptor [7]; +0.1 mM JB-D4, M5",81 ± 3%
same,koff,"M5 muscarinic receptor [7]; +0.1 mM JB-D4, M5, read-out: koff (converted)",0.000633 s⁻¹
same,f,"M5 muscarinic receptor [7]; +1 mM JB-D4, M5",81 ± 3%
same,koff,"M5 muscarinic receptor [7]; +1 mM JB-D4, M5",0.00055 ± 8.3e-05 s⁻¹
same,koff,"M5 muscarinic receptor [7]; +1 mM JB-D4, M5, read-out: koff (converted)",0.00055 s⁻¹
same,f,"M3 muscarinic receptor [8]; +0.1 mM JB-D4, M3",84 ± 3%
same,koff,"M3 muscarinic receptor [8]; +0.1 mM JB-D4, M3, read-out: koff (converted)",0.00317 s⁻¹
same,f,"M3 muscarinic receptor [8]; +1 mM JB-D4, M3",82 ± 3%
same,koff,"M3 muscarinic receptor [8]; +1 mM JB-D4, M3",0.0014 ± 0.00012 s⁻¹
same,koff,"M3 muscarinic receptor [8]; +1 mM JB-D4, M3, read-out: koff (converted)",0.0014 s⁻¹
same,f,"M1 muscarinic receptor [9]; +0.1 mM JB-D4, M1",90 ± 3%
same,koff,"M1 muscarinic receptor [9]; +0.1 mM JB-D4, M1",0.00317 s⁻¹
same,f,"M1 muscarinic receptor [9]; +1 mM JB-D4, M1",88 ± 3%
same,koff,"M1 muscarinic receptor [9]; +1 mM JB-D4, M1",0.00183 s⁻¹
same,inhibition of QNB binding,[10],fully inhibit
